Measurements taken from US20260053861A1, “CELL COMPOSITIONS AND METHODS OF USING THE SAME” (THE REGENTS OF THE UNIVERSITY OF CALIFORNIA, priority 2022, published 2026).
Counter-ions that a name gives are not always drawn. Like-named read-outs stand apart in the source and are kept apart here.

Tested on: hPSC-SCs
[1] = HTS viability of hPSC-SCs in the presence of 30 mM glucose, Prestwick library, Table S4

OCCOCCN1CCN(C(c2ccccc2)c2ccc(Cl)cc2)CC1 (stereo not shown) [Hydroxyzine dihydrochloride]
z.score.t [1]: −0.3011

O=C(O)Cc1ccccc1Nc1c(Cl)cccc1Cl [Diclofenac sodium]
z.score.t [1]: 0.563

CS(=O)(=O)Nc1ccc([N+](=O)[O-])cc1Oc1ccccc1 [Nimesulide]
z.score.t [1]: 2.111

C/C=C1/C[N@+]2(C)CC[C@]34C(=C(C=O)[C@H]1C[C@@H]32)Nc1ccccc14.[Cl-] [Fluorocurarine chloride]
z.score.t: 1.364

Pizotifen malate
z.score.t [1]: −0.2329

CCOC(=O)[C@@](C)(N)Cc1ccc(O)c(O)c1 [Methyldopate hydrochloride]
z.score.t [1]: −0.8464

O=c1c2ccccc2[se]n1-c1ccccc1 [Ebselen]
z.score.t [1]: 0.3459

CC1(C)OC(=O)NC1=O [Dimethadione]
z.score.t [1]: −0.03362

C#CCN(C)[C@H](C)Cc1ccccc1 [Selegiline hydrochloride]
z.score.t: −0.9978

COc1cc(/C=C/C(=O)N2CCC=CC2=O)cc(OC)c1OC [Piperlongumine]
z.score.t: −2.024

CCOC(=O)[C@H](CCc1ccccc1)N[C@@H](C)C(=O)N1Cc2ccccc2C[C@H]1C(=O)O [Quinapril HCl]
z.score.t [1]: −0.1464

CN1C(=O)CCS(=O)(=O)C1c1ccc(Cl)cc1 (stereo not shown) [Chlormezanone]
z.score.t: −0.5532

COc1cc2ccc(=O)oc2cc1O [Scopoletin]
z.score.t [1]: −1.558

CC(=O)N(CC(O)CN(C(C)=O)c1c(I)c(C(=O)NCC(O)CO)c(I)c(C(=O)NCC(O)CO)c1I)c1c(I)c(C(=O)NCC(O)CO)c(I)c(C(=O)NCC(O)CO)c1I (stereo not shown) [Iodixanol]
z.score.t: 0.7539

CCN(CC)CCNC(=O)c1cc(Cl)c(N)cc1OC [Metoclopramide monohydrochloride]
z.score.t [1]: 1.024

COc1cc(-c2ccc(=O)[nH]n2)ccc1OC(F)F [Zardaverine]
z.score.t [1]: −1.128

NCCCCCC(=O)O [Aminocaproic acid]
z.score.t: −0.4749

CC[C@H]1[C@@H]2C[C@H]3[C@@H]4N(C)c5ccccc5[C@]45C[C@@H]([C@H]2[C@H]5O)N3[C@@H]1O [Ajmaline]
z.score.t: 0.1767

CN1CCc2cc3c(cc2[C@H]1[C@@H]1OC(=O)c2c1ccc1c2OCO1)OCO3 [Bicuculline (+)]
z.score.t: 0.5437

Cc1c2ccncc2c(C)c2c1[nH]c1ccccc12 [Ellipticine]
z.score.t [1]: −1.949

C=C1c2cccc(O)c2C(=O)C2=C(O)[C@]3(O)C(=O)C(C(N)=O)=C(O)[C@@H](N(C)C)[C@@H]3[C@@H](O)[C@H]12 [Methacycline hydrochloride]
z.score.t [1]: −0.4684

Cc1ncc(CO)c(CO)c1O.Cl [Pyridoxine hydrochloride]
z.score.t: −0.5337

CN(C)CCCN1c2ccccc2CCc2ccc(Cl)cc21 [Clomipramine hydrochloride]
z.score.t [1]: −1.637

CN(C)/N=N/c1[nH]cnc1C(N)=O [Dacarbazine]
z.score.t [1]: −0.6301

O=C(NCCO[N+](=O)[O-])c1cccnc1 [Nicorandil]
z.score.t [1]: 0.599

CN(C)CCOC(=O)C(c1ccccc1)C1(O)CCCC1 (stereo not shown) [Cyclopentolate hydrochloride]
z.score.t [1]: −0.5614

CO[C@@]1(NC(=O)C(C(=O)O)c2ccc(O)cc2)C(=O)N2C(C(=O)O)=C(CSc3nnnn3C)CO[C@@H]21 (stereo partly shown) [Moxalactam disodium salt]
z.score.t [1]: 0.4105

C[C@]12CC[C@@H]3c4ccc(OS(=O)(=O)O)cc4CC[C@H]3[C@@H]1CCC2=O [Estropipate]
z.score.t [1]: 1.178

CC(C)(C)NC(=O)[C@@H]1C[C@@H]2CCCC[C@@H]2CN1C[C@@H](O)[C@H](Cc1ccccc1)NC(=O)[C@H](CC(N)=O)NC(=O)c1ccc2ccccc2n1 [Saquinavir mesylate]
z.score.t [1]: −0.3033

Cc1cc(-c2ccccc2)nnc1NCCN1CCOCC1 [Minaprine dihydrochloride]
z.score.t [1]: −0.5003

Cc1c(C)c2c(c(C)c1O)CCC(C)(C(=O)O)O2 (stereo not shown) [Trolox]
z.score.t [1]: 2.048

O=c1[nH]c(=O)n([C@H]2C[C@H](O)[C@@H](CO)O2)cc1C(F)(F)F [Trifluridine]
z.score.t [1]: −0.7873

NC[C@@H]1O[C@H](O[C@H]2[C@@H](O)[C@H](O[C@@H]3[C@@H](O)[C@H](N)C[C@H](N)[C@H]3O[C@H]3O[C@H](CO)[C@@H](O)[C@H](O)[C@H]3N)O[C@@H]2CO)[C@H](N)[C@@H](O)[C@@H]1O [Paromomycin sulfate]
z.score.t [1]: −1.074

O=C1C(CC[S+]([O-])c2ccccc2)C(=O)N(c2ccccc2)N1c1ccccc1 (stereo not shown) [Sulfinpyrazone]
z.score.t [1]: 0.3922

C#C[C@]1(O)CC[C@H]2[C@@H]3CCC4=Cc5oncc5C[C@]4(C)[C@H]3CC[C@@]21C [Danazol]
z.score.t [1]: 0.1149

Cc1c(N(C)C)c(=O)n(-c2ccccc2)n1C [Amidopyrine]
z.score.t [1]: −0.2278

CC[C@@H]1C(=O)OC[C@@H]1Cc1cncn1C [Pilocarpine nitrate]
z.score.t [1]: 1.139

CC(=O)S[C@@H]1CC2=CC(=O)CC[C@]2(C)[C@H]2CC[C@@]3(C)[C@@H](CC[C@@]34CCC(=O)O4)[C@H]12 [Spironolactone]
z.score.t [1]: 0.05523

C[C@H](CCC(=O)NCC(=O)O)[C@H]1CC[C@H]2[C@@H]3[C@H](O)C[C@@H]4C[C@H](O)CC[C@]4(C)[C@H]3C[C@H](O)[C@]12C [Glycocholic acid]
z.score.t [1]: −0.8478

CCc1cccc2c3c([nH]c12)C(CC)(CC(=O)O)OCC3 (stereo not shown) [Etodolac]
z.score.t [1]: −0.139

Dihydroergotamine tartrate
z.score.t: −0.5417

CCC1(c2ccccc2)C(=O)NCNC1=O [Primidone]
z.score.t [1]: 0.2582

Cc1c(NC(C)C)c(=O)n(-c2ccccc2)n1C.Cl [Isopyrin hydrochloride]
z.score.t [1]: −0.2359

Nc1c2c(nc3ccccc13)CCCC2O.O=C(O)/C=C\C(=O)O (racemic) [Hydroxytacrine maleate (R,S)]
z.score.t: 0.713

CO/N=C(\C(=O)N[C@@H]1C(=O)N2C(C(=O)O)=C(C[N+]3(C)CCCC3)CS[C@H]12)c1csc(N)n1 [Cefepime hydrochloride]
z.score.t [1]: −0.9926

CCCCCN(CCCCC)C(=O)C(CCC(=O)O)NC(=O)c1ccc(Cl)c(Cl)c1 (stereo not shown) [Lorglumide sodium salt]
z.score.t [1]: 1.824

COc1ccc(C2CNC(=O)C2)cc1OC1CCCC1 (stereo not shown) [Rolipram]
z.score.t [1]: −0.01101

Cc1ccc(S(=O)(=O)NC(=O)NN2CC3CCCC3C2)cc1 (stereo not shown) [Gliclazide]
z.score.t [1]: −0.03629

CCC(Cc1c(I)cc(I)c(N)c1I)C(=O)O (stereo not shown) [Iopanoic acid]
z.score.t [1]: 1.279

CCCCc1oc2ccccc2c1C(=O)c1cc(I)c(OCCN(CC)CC)c(I)c1 [Amiodarone hydrochloride]
z.score.t [1]: −1.609

CC[C@H](C)[C@H]1O[C@]2(CC[C@@H]1C)C[C@@H]1C[C@@H](C/C=C(\C)[C@@H](O[C@H]3C[C@H](OC)[C@@H](O[C@H]4C[C@H](OC)[C@@H](O)[C@H](C)O4)[C@H](C)O3)[C@@H](C)/C=C/C=C3\CO[C@@H]4[C@H](O)C(C)=C[C@@H](C(=O)O1)[C@]34O)O2 [Ivermectin]
z.score.t: −1.866

Cc1ccc(C(=O)c2ccc(CC(=O)O)n2C)cc1 [Tolmetin sodium salt dihydrate]
z.score.t [1]: −0.05622

Merbromin
z.score.t: −0.7567

O=C(OCC(O)CO)c1ccccc1Nc1ccnc2cc(Cl)ccc12 (stereo not shown) [Glafenine hydrochloride]
z.score.t: −0.727

O=C(O)c1cc(-c2ccc(F)cc2F)ccc1O [Diflunisal]
z.score.t [1]: 0.7162
